Results reported in patent publication US5474757A, “Prevention of acetaminophen overdose toxicity with organosulfur compounds” (priority 1992, dated 1995).

Key:
[1] = test system: 1,2-dimethylhydrazine-induced hepatotoxicity and carcinogenesis; conditions: rats; cited from earlier work
[2] = test system: acetaminophen-induced hepatotoxicity; test: animal or person; conditions: for GPT / LDH / Survival / Extent of liver damage: 25 mg/kg oral
Source text: Blood samples were obtained from the jugular vein of CO2 -anesthetizedanimals. The blood was allowed to clot at room temperature and serum was separated by centrifugation. […] Biochem. Biophys.
Randomly-selected samples of the major hepatic lobe were fixed in 10% buffered formalin for histological evaluation. Samples were subsequently embedded in Paraplast (Fisher Scientific) and sectioned at 6 μm on a rotary microtome. Tissue sections were stained with hematoxylin-eosine-phloxine for examination. Extent of tissue damage was determined using a Presage CV-6 Image Analysis System (Advanced Imaging Concepts, Inc.). Images of randomly-selected slides (3 slides/animal, 2-3 animals/group) containing full cross sections of the major hepatic lobe were projected onto a computer screen and the image captured. The areas of damage were then outlined on the screen and the areas quantated using interactive software. The area of damage was shown as a percentage of the total hepatic area for each section. All determinations were made without knowledge of treatment group.
Data were analyzed by the Newman-Keuls multiple comparison procedure on the rank score analysis.
All experiments were replicated at least once.
As a Comparative Example, 300 mg/kg N-acetylcysteine was also administered immediately after administration of 0.2 g/kg acetaminophen.
As a Comparative Example, 300 mg/kg N-acetylcysteine was also administered 1 hour after administration of 0.2 g/kg acetaminophen.

[3] = test system: acetaminophen-induced hepatotoxicity; test: Protective effect against acetaminophen overdose in rats (serum GPT, LDH, liver damage); assay type: in vivo, rat (male Fisher 344)
Description: Brady et al., "Effect of […] […] Biochem. […] Extent of tissue damage was determined using a […]-6 Image Analysis System (Advanced Imaging Concepts, Inc.). […] All determinations were made without knowledge of treatment group. […] All experiments were replicated at least once.

[4] = test system: P-450 2E1; conditions: isolated rat liver microsomes; cited from earlier work
[5] = test system: hepatotoxicity of N-nitrosodimethylamine; conditions: pre-treatment of rats; cited from earlier work
[6] = test system: P-450 2E1; conditions: treatment of rats; cited from earlier work
[7] = test system: carbon tetrachloride hepatotoxicity; conditions: cited from earlier work
[8] = test system: p-nitrophenol hydroxylase; conditions: isolated rat liver microsomes; cited from earlier work
[9] = immediately (0 min) after APAP 0.2 g/kg
[10] = 50 mg/kg oral, 1 hour after APAP 0.4 g/kg, mean ± SD of five rats

C=CCSCC=C [DAS, diallyl sulfide]
protection against 1,2-dimethylhydrazine-induced hepatotoxicity and carcinogenesis [1]: protect toxicity
GPT ([2]; 20 min after APAP 0.2 g/kg): 158 ± 41 U/L
LDH ([2]; 20 min after APAP 0.2 g/kg): 2374 ± 3533 U/L
Survival ([2]; 20 min after APAP 0.2 g/kg): 5/5
Extent of liver damage ([2]; 1 hour after APAP 0.2 g/kg): 16-39%
GPT ([2]; 1 hour after APAP 0.2 g/kg): 179 ± 2 U/L
LDH ([2]; 1 hour after APAP 0.2 g/kg): 15609 ± 7143 U/L
Survival ([2]; 1 hour after APAP 0.2 g/kg): 3/5
Extent of liver damage [2, 9]: 8-17%
GPT [2, 9]: 143 ± 50 U/L
LDH [2, 9]: 1899 ± 1724 U/L
Survival [2, 9]: 5/5
protection against acetaminophen toxicity ([2]; 25 mg/kg, immediately after acetaminophen, mice): although preventing the elevation of the LDH level, only partially prevented liver damage and had little or no effect on the elevated serum GPT level
minimal effective dose ([2]; Mus musculus, read-out: low dose at which protective effect was demonstrated): 5 mg/kg
Extent of liver damage ([3]; 50 mg/kg oral, 1 hour after APAP 0.4 g/kg): 5-13%
GPT [3, 10]: 70 ± 13 U/L
LDH [3, 10]: 220 ± 82 U/L
protection against hepatotoxicity ([3]; 50 mg/kg, 1 hr after APAP, rats): prevented the elevation of serum GPT and LDH levels, but did not completely prevent liver damage
minimal effective dose ([3]; Rattus norvegicus, rats, read-out: low dose at which protective effect was demonstrated): 5 mg/kg
inhibition of P-450 2E1-catalyzed NDMA demethylase [4]: competitively
inhibition of hepatotoxicity of N-nitrosodimethylamine [5]: inhibited the hepatotoxicity
liver microsomal P-450 2E1-dependent (NDMA demethylase) activity [6]: decreased
inhibition of hepatotoxicity of CCl4 ([7]; pre-treatment of rats): inhibited the hepatotoxicity
protection against carbon tetrachloride hepatotoxicity ([7]; rat, in vivo): protect toxicity associated with carbon tetrachloride hepatotoxicity
inhibition of p-nitrophenol hydroxylase [8]: competitively
